Measurements reported in ChEMBL document CHEMBL4823254, “Tetrahydroquinoline-Capped Histone Deacetylase 6 Inhibitor SW-101 Ameliorates Pathological Phenotypes in a Charcot-Marie-Tooth Type 2A Mouse Model” (J Med Chem, 2021).
The source made the active and inactive calls. The calls are words filed in the database; no cut-off is given here.

Columns and labels:
[1] = Genotoxicity in Salmonella typhimurium TA1537 at 5 to 100 uM in presence of liver S9 fraction by Ames test; format: toxicity; settings: salmonella enterica subsp. enterica serovar typhimurium, s9, 100 µM; dose 5-100 µM
[2] = Half life in CD1 mouse pooled liver microsomes assessed as parent compound remaining measured up to 60 mins in presence of NADPH by LC-MS/MS analysis; format: ADME, Microsome; settings: CD1, mouse, pooled liver microsomes
[3] = Genotoxicity in Salmonella typhimurium TA98 at 5 to 100 uM in absence of liver S9 fraction by Ames test; format: toxicity; settings: salmonella enterica subsp. enterica serovar typhimurium, s9, 100 µM; dose 5-100 µM
[4] = molecular target: T1, Protein deacetylase HDAC6 (Mus musculus) (UniProt Q9Z2V5); assay: In vivo inhibition of HDAC6 in hMFN2-induced CMT2A transgenic mouse model assessed as increase in acetylated tubulin in distal sciatic nerve tissue at 20 mg/kg, ip qd administered for 22 weeks by Western blot analysis; format: functional, organism-based
T1 sequence (whole entry): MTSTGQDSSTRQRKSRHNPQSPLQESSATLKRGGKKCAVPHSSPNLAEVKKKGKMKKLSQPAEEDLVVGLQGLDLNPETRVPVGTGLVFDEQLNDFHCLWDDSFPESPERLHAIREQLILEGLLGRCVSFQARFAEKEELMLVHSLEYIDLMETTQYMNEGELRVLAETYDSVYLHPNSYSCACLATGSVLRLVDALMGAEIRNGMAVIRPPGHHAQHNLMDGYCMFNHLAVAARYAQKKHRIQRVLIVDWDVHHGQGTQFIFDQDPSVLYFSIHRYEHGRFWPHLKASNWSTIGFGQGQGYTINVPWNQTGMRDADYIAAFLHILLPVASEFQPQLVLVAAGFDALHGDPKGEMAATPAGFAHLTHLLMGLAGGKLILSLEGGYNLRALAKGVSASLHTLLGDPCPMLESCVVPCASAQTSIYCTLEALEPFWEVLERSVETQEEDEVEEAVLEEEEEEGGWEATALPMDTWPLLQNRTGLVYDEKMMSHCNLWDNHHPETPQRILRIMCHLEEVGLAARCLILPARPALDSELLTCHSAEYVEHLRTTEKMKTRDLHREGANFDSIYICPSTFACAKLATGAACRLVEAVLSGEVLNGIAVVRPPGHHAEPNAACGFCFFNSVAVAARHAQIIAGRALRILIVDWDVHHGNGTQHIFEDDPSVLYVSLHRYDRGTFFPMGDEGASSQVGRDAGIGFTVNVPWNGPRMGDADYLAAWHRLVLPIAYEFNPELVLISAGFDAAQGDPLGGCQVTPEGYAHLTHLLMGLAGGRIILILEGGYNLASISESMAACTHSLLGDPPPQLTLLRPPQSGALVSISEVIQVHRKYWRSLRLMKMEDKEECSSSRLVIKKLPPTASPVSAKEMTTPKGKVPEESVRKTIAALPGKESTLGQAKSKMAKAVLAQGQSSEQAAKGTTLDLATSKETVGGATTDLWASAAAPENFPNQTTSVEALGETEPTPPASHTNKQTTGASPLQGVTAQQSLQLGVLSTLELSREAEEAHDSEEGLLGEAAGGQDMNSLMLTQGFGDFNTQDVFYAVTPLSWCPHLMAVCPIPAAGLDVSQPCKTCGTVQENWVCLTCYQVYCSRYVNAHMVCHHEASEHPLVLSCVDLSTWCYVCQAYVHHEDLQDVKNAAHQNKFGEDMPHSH

[5] = Stability in CD1 mouse pooled liver microsomes assessed as parent compound remaining measured at 60 mins in presence of NADPH by LC-MS/MS analysis; format: ADME, Microsome; settings: CD1, mouse, pooled liver microsomes, read-out: Stabilty
[6] = Cmax in C57BL/6J mouse plasma at 15 mg/kg, ip; format: ADME, organism-based; set-up: route intraperitoneal, dose 15 mg/kg
[7] = molecular target: T2, Histone deacetylase 8 (Homo sapiens, UniProt Q9BY41)
T2 sequence (Q9BY41 whole entry): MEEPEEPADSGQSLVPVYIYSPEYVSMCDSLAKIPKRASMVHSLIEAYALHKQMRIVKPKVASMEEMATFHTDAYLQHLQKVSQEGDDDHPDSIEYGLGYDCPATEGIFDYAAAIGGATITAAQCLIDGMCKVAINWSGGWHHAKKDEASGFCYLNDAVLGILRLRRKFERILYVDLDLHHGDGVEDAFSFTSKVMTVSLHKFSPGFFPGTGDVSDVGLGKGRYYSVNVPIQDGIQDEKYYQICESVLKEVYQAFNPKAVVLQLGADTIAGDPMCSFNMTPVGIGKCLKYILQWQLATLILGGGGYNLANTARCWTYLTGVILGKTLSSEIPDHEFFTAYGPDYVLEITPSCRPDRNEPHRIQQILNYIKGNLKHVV
Description: Inhibition of recombinant human HDAC8 using Boc-Lys(TFA)-AMC as substrate preincubated for 10 mins followed by substrate addition and measured after 30 mins by fluorescence-based assay

[8] = molecular target: T1, Protein deacetylase HDAC6 (Mus musculus); assay: In vivo inhibition of HDAC6 in wild type mouse assessed as increase in alpha-tubulin acetylation in sciatic nerve tissue at 10 to 20 mg/kg, ip measured after 48 hrs by immunoblot analysis; format: functional, organism-based; settings: dose 10-20 mg/kg
[9] = molecular target: T1, Protein deacetylase HDAC6 (Mus musculus); assay: In vivo inhibition of HDAC6 in wild type mouse assessed as increase in alpha-tubulin acetylation in sciatic nerve tissue at 10 to 20 mg/kg, ip measured after 24 hrs by immunoblot analysis; format: functional, organism-based; settings: dose 10-20 mg/kg
[10] = Half life in human plasma; format: ADME, cell-free
[11] = Genotoxicity in Salmonella typhimurium TA100 at 5 to 100 uM in absence of liver S9 fraction by Ames test; format: toxicity; settings: salmonella enterica subsp. enterica serovar typhimurium, s9, 100 µM; dose 5-100 µM
[12] = molecular target: Histone deacetylase 2 (Homo sapiens, UniProt Q92769); assay: Inhibition of recombinant human HDAC2 using Ac-GAK(Ac)-AMC as substrate preincubated for 10 mins followed by substrate addition and measured after 30 mins by fluorescence-based assay
[13] = Half life in C57BL/6J mouse brain at 15 mg/kg, ip; format: ADME, organism-based
[14] = molecular target: T1, Protein deacetylase HDAC6 (Mus musculus); assay: In vivo inhibition of HDAC6 in wild type mouse assessed as increase in alpha-tubulin acetylation in sciatic nerve tissue at 10 to 20 mg/kg, ip measured after 6 hrs by immunoblot analysis relative to control; format: functional, organism-based; set-up: scale not given: the % may be the effect or the level left; settings: dose 10-20 mg/kg
[15] = molecular target: Histone deacetylase 9 (Homo sapiens, UniProt Q9UKV0); assay: Inhibition of recombinant human HDAC9 using Boc-Lys(TFA)-AMC as substrate preincubated for 10 mins followed by substrate addition and measured after 30 mins by fluorescence-based assay
[16] = test system: Mus musculus; assay: Neuroprotective activity in hMFN2-induced CMT2A transgenic mouse model assessed as assessed as latency to fall at 20 mg/kg, ip qd administered for 26 weeks when treated prior with compound dissolved in PBS/PEG400/Tween80/EtOH (50/35/10/5) wt% as vehicle by rotarod test; format: functional, organism-based
[17] = Tmax in C57BL/6J mouse brain at 15 mg/kg, ip; format: ADME, organism-based
[18] = molecular target: T1, Protein deacetylase HDAC6 (Mus musculus); assay: In vivo inhibition of HDAC6 in wild type mouse assessed as increase in alpha-tubulin acetylation in sciatic nerve tissue at 20 mg/kg, ip administered for 12 hrs by immunoblot analysis relative to control; format: functional, organism-based; set-up: scale not given: the % may be the effect or the level left
[19] = Genotoxicity in Salmonella typhimurium TA1537 at 5 to 100 uM in absence of liver S9 fraction by Ames test; format: toxicity; settings: salmonella enterica subsp. enterica serovar typhimurium, s9, 100 µM; dose 5-100 µM
[20] = Half life in mouse liver s9 fraction; format: ADME, subcellular
[21] = Genotoxicity in Salmonella typhimurium TA98 at 5 to 100 uM in presence of liver S9 fraction by Ames test; format: toxicity; settings: salmonella enterica subsp. enterica serovar typhimurium, s9, 100 µM; dose 5-100 µM

Histone deacetylase 2, sequence (Q92769 whole entry): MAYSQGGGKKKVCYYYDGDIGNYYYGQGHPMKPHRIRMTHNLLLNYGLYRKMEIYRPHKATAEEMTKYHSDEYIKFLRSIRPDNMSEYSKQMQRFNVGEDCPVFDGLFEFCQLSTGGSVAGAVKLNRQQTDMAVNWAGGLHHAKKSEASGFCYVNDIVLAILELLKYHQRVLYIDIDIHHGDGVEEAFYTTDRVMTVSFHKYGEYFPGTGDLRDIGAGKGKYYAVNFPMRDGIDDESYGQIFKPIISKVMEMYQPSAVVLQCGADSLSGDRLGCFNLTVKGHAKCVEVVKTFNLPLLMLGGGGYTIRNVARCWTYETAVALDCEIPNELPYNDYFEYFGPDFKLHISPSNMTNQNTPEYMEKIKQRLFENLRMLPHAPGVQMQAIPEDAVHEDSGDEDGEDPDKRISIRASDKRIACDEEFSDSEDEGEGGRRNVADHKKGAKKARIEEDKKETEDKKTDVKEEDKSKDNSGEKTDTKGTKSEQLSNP
Histone deacetylase 9, sequence (Q9UKV0 whole entry): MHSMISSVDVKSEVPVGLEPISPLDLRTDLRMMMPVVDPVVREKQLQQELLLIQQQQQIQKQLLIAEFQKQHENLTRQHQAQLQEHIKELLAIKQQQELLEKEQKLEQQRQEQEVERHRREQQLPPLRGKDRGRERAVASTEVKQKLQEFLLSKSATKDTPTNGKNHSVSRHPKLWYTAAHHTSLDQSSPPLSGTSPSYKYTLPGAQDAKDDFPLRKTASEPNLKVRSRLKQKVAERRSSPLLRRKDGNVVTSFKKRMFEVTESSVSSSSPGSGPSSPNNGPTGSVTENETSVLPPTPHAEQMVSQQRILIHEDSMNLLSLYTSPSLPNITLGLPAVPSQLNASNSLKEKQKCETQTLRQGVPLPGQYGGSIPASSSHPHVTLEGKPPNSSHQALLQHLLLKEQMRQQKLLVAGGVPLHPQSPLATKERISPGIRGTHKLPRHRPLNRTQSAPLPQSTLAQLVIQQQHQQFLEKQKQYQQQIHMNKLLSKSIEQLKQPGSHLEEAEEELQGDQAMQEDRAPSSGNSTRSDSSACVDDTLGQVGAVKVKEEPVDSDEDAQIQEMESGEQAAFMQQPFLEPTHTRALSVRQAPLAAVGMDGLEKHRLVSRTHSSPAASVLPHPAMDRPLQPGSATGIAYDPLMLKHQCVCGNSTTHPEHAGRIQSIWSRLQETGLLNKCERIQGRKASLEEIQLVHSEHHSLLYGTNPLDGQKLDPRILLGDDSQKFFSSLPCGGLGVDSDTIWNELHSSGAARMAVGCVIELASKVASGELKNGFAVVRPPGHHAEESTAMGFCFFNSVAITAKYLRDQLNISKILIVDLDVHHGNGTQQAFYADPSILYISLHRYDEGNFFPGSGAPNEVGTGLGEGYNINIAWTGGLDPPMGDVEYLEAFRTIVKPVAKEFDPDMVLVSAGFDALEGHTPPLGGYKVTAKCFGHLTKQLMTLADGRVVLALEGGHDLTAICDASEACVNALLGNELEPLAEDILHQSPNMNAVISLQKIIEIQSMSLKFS

half-life [2]: 1.48 h
inhibition [4]: Active
remaining at 1 h [5]: 56%
Cmax [6]: 3580 ng/mL
IC50 [7]: 651 nM
inhibition [8]: inactive
inhibition [9]: Active
half-life [10]: > 6.67 h
IC50 [12]: 140 nM
half-life [13]: 2.9 h
Activity [14]: 150%
IC50 [15]: 650 nM
Tmax [17]: 0.25 h
Activity [18]: 175%
half-life [20]: 3.55 h
Compound: NC(=O)c1ccc2c(c1)CCCN2Cc1ccc(C(=O)NO)cc1
Activity [1]: Non-Toxic
Activity [3]: Non-Toxic
Activity [11]: Non-Toxic
Activity [16]: Active
Activity [19]: Non-Toxic
Activity [21]: Non-Toxic
